# Values quoted from earlier work in PMC3345309 (Hepatology (Baltimore, Md.), 2012).
# Tests used:
# [1] = test system: HCV Renilla reporter virus; conditions: ref [18]
# [2] = test system: NS5A-augmented HCV IRES-mediated translation; conditions: ref [18]
smiles,measurement,setting,value
O=c1c(O)c(-c2ccc(O)c(O)c2)oc2cc(O)cc(O)c12 [Quercetin],effect on virus production,[1],blocked
same,effect on NS5A-augmented IRES-mediated translation,[2],blocked
